# Results published in patent US10167262B2, “Herbicidal substituted 3-arylpyrazoles” (FMC CORPORATION, priority 2014, dated 2019).
# Assays:
# Experiment in all cases: Test E pre-/postemergence greenhouse test, plant response rating 0-100
# Assay type in all cases: in vivo
# [1] = tested on: goosegrass (Eleusine indica); conditions: Preemergence, scale 0 to 100
# [2] = tested on: johnsongrass (Sorghum halepense); conditions: Preemergence, scale 0 to 100
# [3] = tested on: morningglory (Ipomoea coccinea); conditions: Preemergence, scale 0 to 100
# [4] = tested on: green foxtail (Setaria viridis); conditions: Preemergence, scale 0 to 100
# [5] = tested on: smartweed (ladysthumb smartweed, Polygonum persicaria); conditions: scale 0 to 100; for Smartweed plant response rating: Preemergence
# [6] = tested on: yellow nutsedge (Cyperus esculentus); conditions: Preemergence, scale 0 to 100
# [7] = tested on: giant foxtail (Setaria faberii); conditions: Preemergence, scale 0 to 100
# [8] = tested on: waterhemp (common waterhemp, Amaranthus rudis); conditions: scale 0 to 100; for Plant response rating, Waterhemp: Postemergence; for Waterhemp plant response rating: Preemergence
# Outline: (§1)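 Rated visually against controls 14-21 days after treatment on a 0-100 scale (100 = complete control). Pre- and postemergence sprays used a non-phytotoxic solvent mixture with surfactant. Preemergence seeds were in silt loam; postemergence plants were in peat-based medium at the 1- to 4-leaf stage (2-18 cm).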
# [9] = tested on: velvetleaf (Abutilon theophrasti); conditions: Preemergence, scale 0 to 100
# Outline: as §1
# [10] = tested on: surinam grass (Brachiaria decumbens); conditions: Preemergence, scale 0 to 100
# Outline: as §1
# [11] = tested on: ragweed (common ragweed, Ambrosia elatior); conditions: Preemergence, scale 0 to 100
# Outline: as §1
# kochia (Kochia scoparia) = conditions: Preemergence, scale 0 to 100
# Outline: as §1
# soybean (Glycine max) = conditions: scale 0 to 100; for Plant response rating, Soybean: Postemergence; for Soybean plant response rating: Preemergence
# Outline: as §1
# [12] = tested on: field bindweed (Convolvulus arvensis); conditions: scale 0 to 100; for Plant response rating, Field Bindweed: Postemergence; for Field Bindweed plant response rating: Preemergence
# Outline: as §1
# [13] = tested on: smartweed (ladysthumb smartweed, Polygonum persicaria); conditions: Postemergence, 250 g ai/ha; scale 0 to 100
# [14] = tested on: large (Lg) crabgrass (Digitaria sanguinalis); conditions: Preemergence, scale 0 to 100
compound,measurement,setting,value
O=C(c1ccccc1)c1cn(S(=O)(=O)CC(F)(F)F)nc1-c1cc(Cl)cc(Cl)c1 [Compound 3],Goosegrass plant response rating,[1]; 31 g ai/ha,0
same,Goosegrass plant response rating,[1]; 62 g ai/ha,0
same,Goosegrass plant response rating,[1]; 125 g ai/ha,0
same,Goosegrass plant response rating,[1]; 250 g ai/ha,35
same,Goosegrass plant response rating,[1]; 500 g ai/ha,35
same,Johnsongrass plant response rating,[2]; 31 g ai/ha,0
same,Johnsongrass plant response rating,[2]; 62 g ai/ha,0
same,Johnsongrass plant response rating,[2]; 125 g ai/ha,0
same,Johnsongrass plant response rating,[2]; 250 g ai/ha,35
same,Johnsongrass plant response rating,[2]; 500 g ai/ha,35
same,Morningglory plant response rating,[3]; 31 g ai/ha,0
same,Morningglory plant response rating,[3]; 62 g ai/ha,0
same,Morningglory plant response rating,[3]; 125 g ai/ha,0
same,Morningglory plant response rating,[3]; 250 g ai/ha,0
same,Morningglory plant response rating,[3]; 500 g ai/ha,0
same,"Foxtail, Green plant response rating",[4]; 31 g ai/ha,0
same,"Foxtail, Green plant response rating",[4]; 62 g ai/ha,0
same,"Foxtail, Green plant response rating",[4]; 125 g ai/ha,0
same,"Foxtail, Green plant response rating",[4]; 250 g ai/ha,0
same,"Foxtail, Green plant response rating",[4]; 500 g ai/ha,0
same,"Plant response rating, Smartweed","[5]; Postemergence, 500 g ai/ha",90
same,Smartweed plant response rating,[5]; 31 g ai/ha,0
same,Smartweed plant response rating,[5]; 62 g ai/ha,0
same,Smartweed plant response rating,[5]; 125 g ai/ha,0
same,Smartweed plant response rating,[5]; 250 g ai/ha,0
same,Smartweed plant response rating,[5]; 500 g ai/ha,0
same,"Nutsedge, Yellow plant response rating",[6]; 62 g ai/ha,50
same,"Nutsedge, Yellow plant response rating",[6]; 125 g ai/ha,35
same,"Nutsedge, Yellow plant response rating",[6]; 500 g ai/ha,75
same,"Foxtail, Giant plant response rating",[7]; 31 g ai/ha,0
same,"Foxtail, Giant plant response rating",[7]; 62 g ai/ha,0
same,"Foxtail, Giant plant response rating",[7]; 125 g ai/ha,0
same,"Foxtail, Giant plant response rating",[7]; 250 g ai/ha,15
same,"Foxtail, Giant plant response rating",[7]; 500 g ai/ha,35
same,"Plant response rating, Waterhemp",[8]; 31 g ai/ha,95
same,"Plant response rating, Waterhemp",[8]; 62 g ai/ha,98
same,"Plant response rating, Waterhemp",[8]; 125 g ai/ha,98
same,"Plant response rating, Waterhemp",[8]; 250 g ai/ha,90
same,"Plant response rating, Waterhemp",[8]; 500 g ai/ha,98
same,Waterhemp plant response rating,[8]; 31 g ai/ha,0
same,Waterhemp plant response rating,[8]; 62 g ai/ha,50
same,Waterhemp plant response rating,[8]; 125 g ai/ha,75
same,Waterhemp plant response rating,[8]; 250 g ai/ha,85
same,Waterhemp plant response rating,[8]; 500 g ai/ha,98
same,Velvetleaf plant response rating,[9]; 31 g ai/ha,20
same,Velvetleaf plant response rating,[9]; 62 g ai/ha,20
same,Velvetleaf plant response rating,[9]; 125 g ai/ha,35
same,Velvetleaf plant response rating,[9]; 250 g ai/ha,40
same,Velvetleaf plant response rating,[9]; 500 g ai/ha,80
same,Surinam Grass plant response rating,[10]; 31 g ai/ha,0
same,Surinam Grass plant response rating,[10]; 62 g ai/ha,0
same,Surinam Grass plant response rating,[10]; 125 g ai/ha,0
same,Surinam Grass plant response rating,[10]; 250 g ai/ha,0
same,Surinam Grass plant response rating,[10]; 500 g ai/ha,0
same,Ragweed plant response rating,[11]; 31 g ai/ha,0
same,Ragweed plant response rating,[11]; 62 g ai/ha,0
same,Ragweed plant response rating,[11]; 125 g ai/ha,0
same,Ragweed plant response rating,[11]; 250 g ai/ha,100
same,Ragweed plant response rating,[11]; 500 g ai/ha,95
same,Kochia plant response rating,kochia (Kochia scoparia); 31 g ai/ha,0
same,Kochia plant response rating,kochia (Kochia scoparia); 62 g ai/ha,20
same,Kochia plant response rating,kochia (Kochia scoparia); 125 g ai/ha,25
same,Kochia plant response rating,kochia (Kochia scoparia); 250 g ai/ha,50
same,Kochia plant response rating,kochia (Kochia scoparia); 500 g ai/ha,70
same,"Plant response rating, Soybean",soybean (Glycine max); 31 g ai/ha,0
same,"Plant response rating, Soybean",soybean (Glycine max); 62 g ai/ha,0
same,"Plant response rating, Soybean",soybean (Glycine max); 125 g ai/ha,0
same,"Plant response rating, Soybean",soybean (Glycine max); 250 g ai/ha,0
same,"Plant response rating, Soybean",soybean (Glycine max); 500 g ai/ha,0
same,Soybean plant response rating,soybean (Glycine max); 31 g ai/ha,0
same,Soybean plant response rating,soybean (Glycine max); 62 g ai/ha,0
same,Soybean plant response rating,soybean (Glycine max); 125 g ai/ha,0
same,Soybean plant response rating,soybean (Glycine max); 500 g ai/ha,0
same,"Plant response rating, Field Bindweed",[12]; 31 g ai/ha,0
same,"Plant response rating, Field Bindweed",[12]; 62 g ai/ha,0
same,"Plant response rating, Field Bindweed",[12]; 125 g ai/ha,0
same,"Plant response rating, Field Bindweed",[12]; 250 g ai/ha,0
same,"Plant response rating, Field Bindweed",[12]; 500 g ai/ha,0
same,Field Bindweed plant response rating,[12]; 31 g ai/ha,0
same,Field Bindweed plant response rating,[12]; 62 g ai/ha,0
same,Field Bindweed plant response rating,[12]; 125 g ai/ha,0
same,Field Bindweed plant response rating,[12]; 250 g ai/ha,0
same,Field Bindweed plant response rating,[12]; 500 g ai/ha,65
same,"Plant response rating, Smartweed",[13],65
same,"Crabgrass, Large plant response rating",[14]; 31 g ai/ha,0
same,"Crabgrass, Large plant response rating",[14]; 62 g ai/ha,0
same,"Crabgrass, Large plant response rating",[14]; 125 g ai/ha,0
same,"Crabgrass, Large plant response rating",[14]; 250 g ai/ha,0
same,"Crabgrass, Large plant response rating",[14]; 500 g ai/ha,0
